Reference: patent US10874670B2, “Substituted fused heteroaromatic compounds as kinase inhibitors and the use thereof” (IMPACT THERAPEUTICS, INC., priority 2017, dated 2020)

Legend:
[1] = test system: human colon cancer cell SW620; test: MTT assay, growth of SW620 cells, compounds combined with CPT-11; type: cell-based; settings: for IC50: combined with CPT-11 (205 nM medium), 5 days, MTT
Procedure: Inhibitory effects of N,N-dimethyl-3-(4-(1-(tetrahydro-2H-pyran-4-yl)-[1,2,4]triazolo[4,3-a]quinoxalin-8-yl)phenoxy)propan-1-amine and its Analogues Combined with CPT-11 on the Growth of Human Colon Cancer Cell SW620 were Determined by MTT Assay
(§1) SW620 cells were digested by trypsinase, centrifuged at 800 rpm for 5 minutes, the supernatant was discarded, resuspended with fresh medium (RPMI 1640 medium+10% FBS) and counted. The cells were seeded into 96-well cell culture plate with appropriate cell density and incubated overnight in a 37° C. 5% CO2 incubator. The stock solutions of the tested compound and the reference compound AZD0156 were serially diluted to 8 concentrations by DMSO at the ratios of 1:3 and 1:10, respectively, the first concentration was 10 μM or 1 μM, and the last concentration was negative control of DMSO (0 μM, the final concentration of DMSO was 1%). 5 μL of each concentration was added to 120 μL of medium (25 times diluted) and mixed by shaking. The overnight cells were taken and the culture medium was removed, 195 μL of fresh medium containing 205 nM CPT-11 was added to each well, and 5 μL of diluted medium containing the corresponding concentration of the tested sample was added respectively, and the culture plate was then placed in the 5% CO2 cell culture incubator at 37° C. for 5 days. After removing the original solution, 100 pt of fresh serum-free DMEM medium containing MTT (0.5 mg/mL) was added to each well, the culture was continued. After 4 hours, the original solution was removed, 100 μL of DMSO was added into each well, the 96-well plates were shaken away from light for 10 minutes and placed in a multi-function reader to read the absorbance at the wavelength of 552/630/690 nm. GraphPad Prism 6.0 was used to analyze the data. The inhibitory activity of compounds on cell proliferation was plotted based on cell viability and compound concentration. The IC50 value was fitted by a sigmoidal dose response curve equation Y=100/(1+10^(Log C−Log IC50)), where C was the concentration of compound.
Table 3 summarizes the inhibitory effects of compounds combined with CPT-11 on the growth of human colon cancer cell SW620 (IC50).

[2] = test system: human breast cancer cell MDA-MB-468; test: MTT assay, growth of MDA-MB-468 cells; type: cell-based; settings: for IC50: 7 days, MTT
Procedure: Inhibitory Effects of N,N-dimethyl-3-(4-(1-(tetrahydro-2H-pyran-4-yl)-[1,2,4]triazolo[4,3-a]quinoxalin-8-yl)phenoxy)propan-1-amine and its Analogues on the Growth of Human Breast Cancer Cell MDA-MB-468 were Determined by MTT Assay
as §1, with “MDA-MB-468 cells” for “SW620 cells”, “1:10, respectively:” for “1:10, respectively,”, “was 100” for “was 10”, “medium” for “medium containing 205 nM CPT-11”, “for 7 days (On the fourth day, the medium containing drugs was removed and fresh medium containing drugs was added for continuous cultivation).” for “for 5 days.”, “100 μL” for “100 pt”
Table 4 summarizes the inhibitory effects of compounds on the growth of human breast cancer cell MDA-MB-468 (IC50).

ATM enzyme (human) = ATM enzyme (human) (Homo sapiens, UniProt Q13315); test: ATM kinase assay (HTRF, GST-cMyc-p53 substrate); type: biochemical; settings: for inhibition at 0.01 µM: C 0.01 μm (final concentration of compound); for inhibition at 0.1 µM: C 0.1 μm (final concentration of compound)
Procedure: In Vitro Inhibition of ATM by N,N-dimethyl-3-(4-(1-(tetrahydro-2H-pyran-4-yl)-[1,2,4]triazolo[4,3-a]quinoxalin-8-yl)phenoxy)propan-1-amine and its Analogues was Determined by ATM Kinase Assay
The reaction was initiated by the addition of a Mg/ATP mixture and incubation for 30 minutes at room temperature, the reaction was quenched by the addition of a stop solution containing EDTA. Finally, the detection buffer containing the d2-labeled anti-GST monoclonal antibody and the europium-labeled anti-phospho p53 (Ser15) antibody was added. The plate was then read in time resolved fluorescence mode and the homogeneous time resolved fluorescence (HTRF) signal was determined according to the equation: HTRF=10000×(Em665nm/Em620nm). Each compound sample was repeated in duplicate. The experiment negative control was all components except of the ATM enzyme and the positive control contained all components. All reactions were quenched by adding EDTA.
ATM kinase inhibition was detected by using the method described above. The curve equation for calculating IC50 value is as follows:
[formula] • wherein, C is the concentration of compound and D is the slope factor.

[3] = Homo sapiens, MDA-MB-468, 168 h
[4] = 0.5 h, read-out: Inh (%) of ATM kinase
[5] = 0.5 h, C 1 μm (final concentration of compound), read-out: Inh (%) of ATM kinase

Sequence of ATM enzyme (human) (Q13315 whole entry): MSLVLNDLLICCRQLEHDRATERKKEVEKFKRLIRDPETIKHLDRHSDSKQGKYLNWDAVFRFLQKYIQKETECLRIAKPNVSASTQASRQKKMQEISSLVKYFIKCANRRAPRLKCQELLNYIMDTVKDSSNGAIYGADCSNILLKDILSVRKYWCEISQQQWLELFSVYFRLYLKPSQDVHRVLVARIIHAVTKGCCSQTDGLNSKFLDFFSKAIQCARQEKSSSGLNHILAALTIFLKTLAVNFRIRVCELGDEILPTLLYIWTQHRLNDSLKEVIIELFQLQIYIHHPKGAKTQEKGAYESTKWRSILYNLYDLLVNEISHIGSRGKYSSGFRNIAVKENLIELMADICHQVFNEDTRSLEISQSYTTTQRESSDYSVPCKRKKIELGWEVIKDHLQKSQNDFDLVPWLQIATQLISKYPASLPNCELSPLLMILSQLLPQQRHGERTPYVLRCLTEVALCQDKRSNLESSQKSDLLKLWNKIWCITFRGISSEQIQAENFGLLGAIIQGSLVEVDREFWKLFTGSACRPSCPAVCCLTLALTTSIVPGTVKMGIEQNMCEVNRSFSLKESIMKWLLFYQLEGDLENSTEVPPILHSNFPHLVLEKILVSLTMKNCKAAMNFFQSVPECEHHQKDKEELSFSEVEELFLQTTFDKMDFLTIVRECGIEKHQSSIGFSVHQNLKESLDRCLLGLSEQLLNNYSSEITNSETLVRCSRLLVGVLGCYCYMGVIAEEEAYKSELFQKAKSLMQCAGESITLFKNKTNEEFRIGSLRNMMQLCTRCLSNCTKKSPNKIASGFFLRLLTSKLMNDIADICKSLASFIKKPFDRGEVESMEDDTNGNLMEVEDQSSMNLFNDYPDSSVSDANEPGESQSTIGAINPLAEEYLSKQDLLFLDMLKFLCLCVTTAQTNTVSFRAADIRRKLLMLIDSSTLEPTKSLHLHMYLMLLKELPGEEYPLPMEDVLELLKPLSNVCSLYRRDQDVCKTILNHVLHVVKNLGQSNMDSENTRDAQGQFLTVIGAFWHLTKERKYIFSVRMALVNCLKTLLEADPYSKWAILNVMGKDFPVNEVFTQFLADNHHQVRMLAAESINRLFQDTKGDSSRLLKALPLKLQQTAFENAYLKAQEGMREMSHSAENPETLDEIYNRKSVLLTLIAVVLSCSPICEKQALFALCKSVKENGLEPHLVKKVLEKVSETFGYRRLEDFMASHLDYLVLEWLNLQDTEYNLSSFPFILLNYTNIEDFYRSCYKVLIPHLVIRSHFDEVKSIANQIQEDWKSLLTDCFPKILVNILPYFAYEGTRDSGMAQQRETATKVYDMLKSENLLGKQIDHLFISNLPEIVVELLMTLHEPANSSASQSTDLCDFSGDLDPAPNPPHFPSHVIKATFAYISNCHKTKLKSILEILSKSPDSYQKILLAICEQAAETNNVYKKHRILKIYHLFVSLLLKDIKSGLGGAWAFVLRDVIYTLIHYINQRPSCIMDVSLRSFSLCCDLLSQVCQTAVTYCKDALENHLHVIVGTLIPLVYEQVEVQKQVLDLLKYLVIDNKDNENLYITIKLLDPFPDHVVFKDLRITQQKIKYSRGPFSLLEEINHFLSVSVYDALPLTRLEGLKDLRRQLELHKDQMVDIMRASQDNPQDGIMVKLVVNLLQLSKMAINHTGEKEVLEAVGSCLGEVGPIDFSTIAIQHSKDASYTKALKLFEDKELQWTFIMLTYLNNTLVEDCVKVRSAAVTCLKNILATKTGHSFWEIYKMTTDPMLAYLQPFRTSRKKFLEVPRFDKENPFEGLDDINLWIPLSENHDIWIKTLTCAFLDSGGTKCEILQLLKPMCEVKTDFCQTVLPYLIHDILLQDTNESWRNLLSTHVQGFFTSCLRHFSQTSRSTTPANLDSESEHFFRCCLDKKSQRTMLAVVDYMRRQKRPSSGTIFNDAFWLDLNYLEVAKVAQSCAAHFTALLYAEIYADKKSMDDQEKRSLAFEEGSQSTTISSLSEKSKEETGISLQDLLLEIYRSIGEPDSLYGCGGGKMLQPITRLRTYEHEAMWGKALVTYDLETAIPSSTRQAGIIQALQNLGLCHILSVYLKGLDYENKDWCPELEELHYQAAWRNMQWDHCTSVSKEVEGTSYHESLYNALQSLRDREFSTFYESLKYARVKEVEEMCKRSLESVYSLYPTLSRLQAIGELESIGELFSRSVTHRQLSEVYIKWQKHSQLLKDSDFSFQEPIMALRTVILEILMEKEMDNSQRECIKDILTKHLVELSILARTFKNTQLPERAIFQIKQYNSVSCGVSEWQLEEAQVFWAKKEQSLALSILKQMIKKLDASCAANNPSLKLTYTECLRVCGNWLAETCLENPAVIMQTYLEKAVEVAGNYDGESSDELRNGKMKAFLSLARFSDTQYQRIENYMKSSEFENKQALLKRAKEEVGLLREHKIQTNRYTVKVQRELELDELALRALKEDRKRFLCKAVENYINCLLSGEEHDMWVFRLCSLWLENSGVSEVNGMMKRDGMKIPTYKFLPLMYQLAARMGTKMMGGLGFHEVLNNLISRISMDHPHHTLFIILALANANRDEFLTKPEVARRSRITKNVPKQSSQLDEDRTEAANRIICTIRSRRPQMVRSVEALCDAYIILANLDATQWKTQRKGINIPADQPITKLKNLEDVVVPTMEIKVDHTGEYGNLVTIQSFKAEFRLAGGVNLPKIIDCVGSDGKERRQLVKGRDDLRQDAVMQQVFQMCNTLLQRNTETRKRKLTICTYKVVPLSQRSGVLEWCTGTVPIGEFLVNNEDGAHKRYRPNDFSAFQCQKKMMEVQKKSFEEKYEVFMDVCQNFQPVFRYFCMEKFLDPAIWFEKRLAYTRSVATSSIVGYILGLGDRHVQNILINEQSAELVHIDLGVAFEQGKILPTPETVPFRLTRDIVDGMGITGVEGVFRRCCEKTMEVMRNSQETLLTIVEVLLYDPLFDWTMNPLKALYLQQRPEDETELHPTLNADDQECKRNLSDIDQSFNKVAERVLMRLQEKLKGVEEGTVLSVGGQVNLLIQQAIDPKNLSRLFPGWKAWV

| Structure (SMILES) | IC50 ([1]; Homo sapiens, SW-620, 120 h) [µM] | IC50 [2, 3] [µM] | inhibition at 0.01 µM (ATM enzyme (human); [4]) [%] | inhibition at 0.1 µM (ATM enzyme (human); [4]) [%] | inhibition at 1 µM (ATM enzyme (human); [5]) [%] | other results |
| --- | --- | --- | --- | --- | --- | --- |
| CN(C)CCCOc1ccc(-c2ccc3ncc4c(c3c2)n(C2CCOCC2)c(=O)n4C)cn1 [AZD0156, reference compound] |  |  |  |  |  | IC50 [1]: 0.01 µM; IC50 [2]: 0.0109 µM; Inh (%) of ATM kinase (ATM enzyme (human); C 1 μm (final concentration of compound)): 100% |
| CN(C)CCCOc1ccc(-c2ccc3ncc4nnc(C5CCOCC5)n4c3c2)cc1 [Example 4, N,N-dimethyl-3-(4-(1-(tetrahydro-2H-pyran-4-yl)-[1,2,4]triazolo[4,3-a]quinoxalin-8-yl)phenoxy)propan-1-amine] | 0.328 | 0.95 |  |  |  | IC50 (ATM enzyme (human); 10-concentration dilution series, read-out: IC50, inhibition of ATM kinase): 0.009 µM; inhibition at 10 µM (ATM enzyme (human); 0.5 h, C 10 μm (final concentration of compound), read-out: Inh (%) of ATM kinase): 100%; inhibitory effect on ATM kinase (in words) (ATM enzyme (human); ATM kinase (human) assay): good inhibitory effect |
| CN(C)CCCOc1ccc(-c2ccc3ncc4nnc(C5CCOCC5)n4c3c2)nc1 [Example 5, N,N-dimethyl-3-((6-(1-(tetrahydro-2H-pyran-4-yl)-[1,2,4]triazolo[4,3-a]quinoxalin-8-yl)pyridin-3-yl)oxy)propan-1-amine] | > 100 | > 100 | 7 | 47 | 96 |  |
| CN(C)CCCN(C)c1ccc(-c2ccc3ncc4nnc(C5CCOCC5)n4c3c2)cc1 [Example 11, N-(3-(dimethylamino)propyl)-N-methyl-4-(1-(tetrahydro-2H-pyran-4-yl)-[1,2,4]triazolo[4,3-a]quinoxalin-8-yl)aniline] | > 100 | > 100 |  |  | 64 |  |
| CN(C)C1CCN(c2ccc(-c3ccc4ncc5nnc(C6CCOCC6)n5c4c3)cc2)CC1 [Example 12, N,N-dimethyl-1-(4-(1-(tetrahydro-2H-pyran-4-yl)-[1,2,4]triazolo[4,3-a]quinoxalin-8-yl)phenyl)piperidin-4-amine] | 0.173 | 0.236 | 50 | 93 | 100 |  |
| CN(C)C1CCC(c2ccc(-c3ccc4ncc5nnc(C6CCOCC6)n5c4c3)cc2)CC1 (stereo not drawn) [Example 18, N,N-dimethyl-4-(4-(1-(tetrahydro-2H-pyran-4-yl)-[1,2,4]triazolo[4,3-a]quinoxalin-8-yl)phenyl)cyclohexan-1-amine] | > 100 | > 100 |  |  | 34 |  |
| CN(C)CCCOc1ccc(-c2ccc3ncc4nnc(N5CCCCC5)n4c3c2)cc1 [Example 20, N,N-dimethyl-3-(4-(1-(piperidin-1-yl)-[1,2,4]triazolo[4,3-a]quinoxalin-8-yl)phenoxy)propan-1-amine] | 0.144 | 0.122 | 79 | 99 | 100 |  |
| CN(C)CCCOc1ccc(-c2ccc3ncc4nnc(N5CCOCC5)n4c3c2)cc1 [Example 21, N,N-dimethyl-3-(4-(1-morpholino-[1,2,4]triazolo[4,3-a]quinoxalin-8-yl)phenoxy)propan-1-amine] | 0.334 | 0.372 |  |  | 100 |  |
| CN(C)CCCOc1ccc(-c2ccc3ncc4nnc(N5CCN(C)CC5)n4c3c2)cc1 [Example 22, N,N-dimethyl-3-(4-(1-(4-methylpiperazin-1-yl)-[1,2,4]triazolo[4,3-a]quinoxalin-8-yl)phenoxy)propan-1-amine] | 0.413 | 0.422 |  |  | 100 |  |
| C[C@@H]1CN(c2nnc3cnc4ccc(-c5ccc(OCCCN(C)C)cc5)cc4n23)C[C@H](C)N1C [Example 23, N,N-dimethyl-3-(4-(1-((3S,5R)-3,4,5-trimethylpiperazin-1-yl)-[1,2,4]triazolo[4,3-a]quinoxalin-8-yl)phenoxy)propan-1-amine] | 0.0651 | 0.0541 | 81 | 99 | 100 | inhibitory effect on the growth of SW620 cells (in words) ([1]; MTT assay, combined with CPT-11): inhibited the growth of SW620 cell; inhibitory effect on the growth of MDA-MB-468 cells (in words) ([2]; MTT assay): inhibited the growth of MDA-MB-468 cell; inhibition at 0.001 µM (ATM enzyme (human); 0.5 h, C 0.001 μm (final concentration of compound), read-out: Inh (%) of ATM kinase): 60% |
| CN(C)CCCOc1ccc(-c2ccc3ncc4nnc(CN5CCOCC5)n4c3c2)cc1 [Example 27, N,N-dimethyl-3-(4-(1-(morpholinomethyl)-[1,2,4]triazolo[4,3-a]quinoxalin-8-yl)phenoxy)propan-1-amine] | 0.47 | 0.452 | 43 | 84 | 99 |  |
| CN(C)CCCOc1ccc(-c2ccc3ncc4nnc(-c5c[nH]cn5)n4c3c2)cc1 [Example 29, N,N-dimethyl-3-(4-(1-(1H-imidazol-4-yl)-[1,2,4]triazolo[4,3-a]quinoxalin-8-yl)phenoxy)propan-1-amine] | 1.21 | 0.86 | 34 | 81 | 97 |  |
| CN(C)CCCOc1ccc(-c2cc3c(cn2)ncc2nnc(C4CCOCC4)n23)cc1 [Example 30, N,N-dimethyl-3-(4-(1-(tetrahydro-2H-pyran-4-yl)pyrido[3,4-e][1,2,4]triazolo[4,3-a]pyrazin-8-yl)phenoxy)propan-1-amine] | > 10 | > 10 |  |  | 14 |  |
| CN(C)CCCOc1ccc(-c2ccc3ncc4nnc(C5CCOCC5)n4c3n2)cc1 [Example 31, N,N-dimethyl-3-(4-(9-(tetrahydro-2H-pyran-4-yl)pyrido[3,2-e][1,2,4]triazolo[4,3-a]pyrazin-2-yl)phenoxy)propan-1-amine] | 0.262 | 0.335 | 51 | 92 | 100 |  |
| CN(C)C1CCN(c2ccc(-c3ccc4ncc5nnc(N6CCC(N(C)C)CC6)n5c4n3)cc2)CC1 [Example 90, 1-(2-(4-(4-(dimethylamino)piperidin-1-yl)phenyl)pyrido[3,2-e][1,2,4]triazolo[4,3-a]pyrazin-9-yl)-N,N-dimethylpiperidin-4-amine] | 0.981 | > 10 |  |  |  |  |
